Literature values as cited in patent US12133854B2 (SLAYBACK PHARMA LLC, priority 2021, dated 2024).
In brackets after ≈: the same amount, converted by molar mass. Entries after “also recorded” stand apart in the source; their conditions may differ. Where two headings read alike, the source gives them in different places.

CC#C[C@]1(O)CC[C@H]2[C@@H]3CCC4=CC(=O)CCC4=C3[C@@H](c3ccc(N(C)C)cc3)C[C@@]21C [Mifepristone, 11β-(4-dimethylaminophenyl)-17β-hydroxy-17α-(1-propynyl)-estra-4,9-dien-3-one]
Solubility in methanol, chloroform and acetone: very soluble | Solubility in water: practically insoluble; also recorded: low aqueous solubility | Solubility (above pH 2.5): less than 1 mg/mL | Solubility (in acid, pH 1.5): ~25 mg/mL (≈ 58.2 mM)
